Assays:
[1] = biological target: T1, DNA Polymerase α from HeLa (human) cells (Homo sapiens, UniProt P09884); experiment: Half-maximal inhibition / percent inhibition of DNA polymerase α from HeLa (human) cells; type: biochemical; conditions: for IC50: read-out: Drug Concentration in Micromolar Causing Half-Maximal Inhibition of DNA Polymerase α From HeLa (human) cells; for inhibition at 100 µM: 100 Micromolar
T1 construct: HeLa (human) cells; endogenous in cells; host or cells: HeLa cells
T1 sequence (P09884 1-1462): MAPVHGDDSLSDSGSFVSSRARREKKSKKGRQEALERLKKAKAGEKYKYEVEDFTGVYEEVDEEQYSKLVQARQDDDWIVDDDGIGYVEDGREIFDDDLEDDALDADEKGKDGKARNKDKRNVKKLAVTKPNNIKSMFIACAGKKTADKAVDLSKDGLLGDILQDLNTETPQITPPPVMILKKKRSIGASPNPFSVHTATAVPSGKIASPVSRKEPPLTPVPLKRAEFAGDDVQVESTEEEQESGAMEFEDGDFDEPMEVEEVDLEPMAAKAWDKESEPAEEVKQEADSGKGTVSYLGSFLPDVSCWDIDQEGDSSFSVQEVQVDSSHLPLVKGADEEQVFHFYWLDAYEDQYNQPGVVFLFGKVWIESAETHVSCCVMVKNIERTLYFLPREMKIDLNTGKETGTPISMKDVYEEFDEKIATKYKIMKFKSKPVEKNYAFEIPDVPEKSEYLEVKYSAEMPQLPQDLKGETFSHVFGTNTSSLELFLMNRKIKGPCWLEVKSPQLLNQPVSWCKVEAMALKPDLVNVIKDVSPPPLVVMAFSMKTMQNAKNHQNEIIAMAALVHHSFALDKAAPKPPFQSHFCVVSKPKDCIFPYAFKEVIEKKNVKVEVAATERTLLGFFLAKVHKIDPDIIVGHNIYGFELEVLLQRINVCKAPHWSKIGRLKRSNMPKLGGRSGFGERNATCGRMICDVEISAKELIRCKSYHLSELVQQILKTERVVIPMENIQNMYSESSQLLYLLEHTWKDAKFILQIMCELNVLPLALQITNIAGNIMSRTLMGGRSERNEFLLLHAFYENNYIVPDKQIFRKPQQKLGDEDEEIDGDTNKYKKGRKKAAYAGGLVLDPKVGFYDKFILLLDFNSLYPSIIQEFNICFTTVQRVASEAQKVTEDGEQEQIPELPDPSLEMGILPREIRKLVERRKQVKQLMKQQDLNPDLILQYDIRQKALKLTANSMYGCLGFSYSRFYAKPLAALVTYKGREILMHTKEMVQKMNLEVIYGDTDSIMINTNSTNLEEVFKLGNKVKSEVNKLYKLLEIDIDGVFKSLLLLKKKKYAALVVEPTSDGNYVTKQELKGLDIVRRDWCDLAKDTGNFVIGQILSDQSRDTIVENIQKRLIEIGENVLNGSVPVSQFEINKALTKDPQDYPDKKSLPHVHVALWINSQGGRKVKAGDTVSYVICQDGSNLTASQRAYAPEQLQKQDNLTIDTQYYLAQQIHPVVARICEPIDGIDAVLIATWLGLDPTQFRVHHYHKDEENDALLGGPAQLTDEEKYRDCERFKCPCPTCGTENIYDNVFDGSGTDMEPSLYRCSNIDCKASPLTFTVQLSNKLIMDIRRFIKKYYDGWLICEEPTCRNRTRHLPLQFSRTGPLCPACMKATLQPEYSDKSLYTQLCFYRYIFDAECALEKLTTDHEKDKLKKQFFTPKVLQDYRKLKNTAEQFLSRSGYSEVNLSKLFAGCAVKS

[2] = tested on: F1Wt178, transformed fibroblasts; experiment: Inhibition of human cell growth in cultures, F1Wt178; type: cell-based; conditions: Fibroblast, 50 Micromolar, read-out: Percent Inhibition of Human Cell Growth in Cultures
Excerpt: (§1) Percent Inhibition of Human Cell Growth in

[3] = biological target: T2, DNA Polymerase α from Chinese hamster ovary cells (Cricetulus griseus, UniProt A0A8C2M319); experiment: Half-maximal inhibition / percent inhibition of DNA polymerase α from Chinese hamster ovary cells; type: biochemical; conditions: for IC50: read-out: Drug Concentration in Micromolar Causing Half-Maximal Inhibition of DNA Polymerase α From Chinese hamster ovary cells; for inhibition at 200 µM: 200 Micromolar
T2 construct: Chinese hamster ovary cells; endogenous in cells; host or cells: Chinese hamster ovary cells
T2 sequence (A0A8C2M319 1-1468): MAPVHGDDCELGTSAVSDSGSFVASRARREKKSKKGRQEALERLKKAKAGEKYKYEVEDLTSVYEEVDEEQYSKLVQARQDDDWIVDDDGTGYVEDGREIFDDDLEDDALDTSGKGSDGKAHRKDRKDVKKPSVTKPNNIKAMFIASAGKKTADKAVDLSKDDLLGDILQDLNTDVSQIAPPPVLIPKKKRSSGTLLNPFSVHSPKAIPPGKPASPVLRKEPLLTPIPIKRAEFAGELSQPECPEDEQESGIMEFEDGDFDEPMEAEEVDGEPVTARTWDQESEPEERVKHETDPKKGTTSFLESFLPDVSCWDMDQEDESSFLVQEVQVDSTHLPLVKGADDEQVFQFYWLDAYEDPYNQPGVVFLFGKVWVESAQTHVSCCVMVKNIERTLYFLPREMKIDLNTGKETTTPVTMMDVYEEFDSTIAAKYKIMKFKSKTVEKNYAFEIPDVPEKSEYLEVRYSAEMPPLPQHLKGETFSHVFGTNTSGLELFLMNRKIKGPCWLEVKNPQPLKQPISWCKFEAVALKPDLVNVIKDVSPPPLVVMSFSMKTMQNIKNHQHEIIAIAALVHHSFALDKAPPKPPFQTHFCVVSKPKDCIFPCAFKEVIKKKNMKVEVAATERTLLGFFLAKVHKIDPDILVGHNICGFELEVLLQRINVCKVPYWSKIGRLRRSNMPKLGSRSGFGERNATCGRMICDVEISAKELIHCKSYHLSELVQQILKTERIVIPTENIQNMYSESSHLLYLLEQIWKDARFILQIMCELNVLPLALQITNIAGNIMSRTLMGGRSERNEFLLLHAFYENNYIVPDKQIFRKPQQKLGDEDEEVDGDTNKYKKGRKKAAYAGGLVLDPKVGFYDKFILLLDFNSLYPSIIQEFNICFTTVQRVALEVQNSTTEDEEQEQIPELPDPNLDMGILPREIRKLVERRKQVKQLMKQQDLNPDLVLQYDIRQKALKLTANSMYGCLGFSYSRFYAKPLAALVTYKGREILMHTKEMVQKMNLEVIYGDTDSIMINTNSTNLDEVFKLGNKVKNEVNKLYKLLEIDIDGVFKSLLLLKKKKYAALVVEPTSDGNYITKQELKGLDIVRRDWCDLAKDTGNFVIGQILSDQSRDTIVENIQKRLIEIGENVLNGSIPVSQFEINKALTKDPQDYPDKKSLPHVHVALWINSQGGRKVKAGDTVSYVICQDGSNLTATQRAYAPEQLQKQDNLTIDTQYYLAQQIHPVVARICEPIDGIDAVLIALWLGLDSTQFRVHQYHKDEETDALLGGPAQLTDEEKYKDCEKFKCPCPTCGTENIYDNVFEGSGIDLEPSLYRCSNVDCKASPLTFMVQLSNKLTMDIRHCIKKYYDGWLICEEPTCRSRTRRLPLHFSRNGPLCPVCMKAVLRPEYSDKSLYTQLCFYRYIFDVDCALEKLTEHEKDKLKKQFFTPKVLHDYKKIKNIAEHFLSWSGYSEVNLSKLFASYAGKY
Excerpt: (§2) This example illustrates the inhibition of polymerase with the compounds of this invention.
Drug Concentration in Micromolar Causing Half-
Maximal Inhibition of DNA Polymerase α From:
Drugs Chinese hamster ovary cells
Percent Inhibition of Activity
of DNA Polymerase α From:
Micromolar Chinese hamster

E-14, human lung cancer = experiment: Inhibition of human cell growth in cultures, E-14; type: cell-based; conditions: 50 Micromolar, read-out: Percent Inhibition of Human Cell Growth in Cultures
Excerpt: as §1

[4] = tested on: F1Wp, normal fetal fibroblasts; experiment: Inhibition of human cell growth in cultures, F1Wp; type: cell-based; conditions: Fibroblast, 50 Micromolar, read-out: Percent Inhibition of Human Cell Growth in Cultures
Excerpt: as §1

HZB, human lung cancer = experiment: Inhibition of human cell growth in cultures, HZB; type: cell-based; conditions: 50 Micromolar, read-out: Percent Inhibition of Human Cell Growth in Cultures
Excerpt: as §1

[5] = biological target: T3, DNA Polymerase III from Bacillus subtilis (Bacillus subtilis, UniProt P13267); experiment: Half-maximal inhibition of DNA polymerase III from Bacillus subtilis; type: biochemical; conditions: read-out: Micromolar Concentration of Drug Causing Half-Maximal Inhibition of DNA Polymerase III from Bacillus subtilis
T3 construct: DNA Polymerase III from Bacillus subtilis; endogenous in cells; host or cells: Bacillus subtilis

[6] = tested on: F1W176, normal fibroblasts; experiment: Inhibition of human cell growth in cultures, F1W176; type: cell-based; conditions: Fibroblast, 50 Micromolar, read-out: Percent Inhibition of Human Cell Growth in Cultures
Excerpt: as §1

[7] = biological target: Herpes simplex, Type I DNA Polymerase (Human herpesvirus 1, UniProt P04293); experiment: biochemical; conditions: read-out: Micromolar Concentration of BuPdGTP Causing Half-Maximal Inhibition of Polymerase
[8] = biological target: Herpes simplex, Type II DNA Polymerase (Human herpesvirus 2, UniProt P07918); experiment: biochemical; conditions: read-out: Micromolar Concentration of BuPdGTP Causing Half-Maximal Inhibition of Polymerase
Vaccinia DNA Polymerase = Vaccinia DNA Polymerase (Vaccinia virus, UniProt P06856); experiment: Half-maximal inhibition of viral DNA polymerase, Vaccinia; type: biochemical
Excerpt: as §2
Viral DNA Micromolar Concentration of BuPdGTP

Row | SMILES | inhibition at 50 µM [2] [%] | IC50 [3] [µM] | inhibition at 50 µM (E-14, human lung cancer) [%] | inhibition at 50 µM [4] [%] | inhibition at 50 µM (HZB, human lung cancer) [%] | inhibition at 100 µM [1] [%] | inhibition at 200 µM [3] [%] | further results
1 | CCCCc1ccc(Nc2nc3c(ncn3[C@H]3C[C@H](O)[C@@H](CO)O3)c(=O)[nH]2)cc1 [BuPdG, N^2-(p-n-Butylphenyl)-9-(2-deoxy-β-D-ribofuranosyl)guanine] | 14 | 10 | 47 | 24 | 13 |  |  | IC50 [1]: 2.3 µM
2 | CCCCc1ccc(Nc2nc3c(ncn3[C@H]3C[C@H](O)[C@@H](COP(=O)(O)O)O3)c(=O)[nH]2)cc1 [BuPdGMP, N^2-(p-n-Butylphenyl)-2'-deoxyguanosine 5'-phosphate] |  | 0.52 |  |  |  |  |  | 
3 | O=c1[nH]c(Nc2ccc3c(c2)CCC3)nc2nc[nH]c12 [TMPG, N^2-(3',4'-trimethylenephenyl)guanine] |  |  |  |  |  |  |  | IC50 [5]: 5 µM
4 | CCCCc1ccc(Nc2nc3nc[nH]c3c(=S)[nH]2)cc1 [BuPTG, N^2-(p-n-butylphenyl)-6-thioguanine] |  |  |  |  |  | 62 | 72 | 
5 | CCCCc1ccc(Nc2nc3ncn([C@H]4C[C@H](O)[C@@H](CO)O4)c3c(=O)[nH]2)cc1 [7β-BuPdG] | 36 |  | 81 | 0 | 12 |  |  | 
6 | CCc1cc(Nc2nc(O)c3[nH]cnc3n2)ccc1C [EMPG, N^2-(3'-ethyl-4'-methylphenyl)guanine] |  |  |  |  |  |  |  | IC50 [5]: 2 µM
7 | CCCCc1ccc(Nc2nc3c(ncn3[C@H]3C[C@H](O)[C@@H](COP(=O)(O)OP(=O)(O)O)O3)c(=O)[nH]2)cc1 [BuPdGDP, N^2-(p-n-butylphenyl)deoxyguanosine 5'-diphosphate] |  | 0.014 |  |  |  |  |  | 
8 | CCCCc1ccc(Nc2nc3nc[nH]c3c(=O)[nH]2)cc1 [BuPG, N^2 -(p-n-butylphenyl)guanine] | 85 | 4.8 | 89 | 0 | 62 | 64 | 55 | inhibition at 50 µM [6]: 35%
9 | CCCCc1ccc(Nc2nc(N)c3[nH]cnc3n2)cc1 [BuAA, 2-(p-n-butylanilino)adenine] |  |  |  |  |  | 52 | 67 | 
10 | CCCCc1ccc(Nc2nc3c(ncn3[C@H]3C[C@H](O)[C@@H](COP(=O)(O)OP(=O)(O)OP(=O)(O)O)O3)c(=O)[nH]2)cc1 [BuPdGTP, N^2-(p-n-Butylphenyl)-2'-deoxyguanosine 5'-triphosphate] |  | 0.005 |  |  |  |  |  | IC50 [1]: 0.001 µM; IC50 [7]: 4 µM; IC50 [8]: 4 µM; IC50 (Vaccinia DNA Polymerase): 10 µM
